The record followed here is patent US7671054B1, “Reverse-turn mimetics and method relating thereto” (Choongwae Pharma Corporation, priority 2001, dated 2010).

The subject of one assay is SW480 cells. Nature of the assay: Growth inhibition assay (MTS). It counts as cell-based. To be noted: Homo sapiens, read-out: Growth Inhibition (GI50, uM) SW480. As to the method: (§1) SW480 or HCT116 cells were placed into 96 well microplate (10^4cells/well) and incubated for 24 hours at 37° C. 20 μl of [3-(4,5-dimethylthiazol-2-yl)-5-(3-carboxyphenyl)-2-(4-sulfophenyl)-2H-tetrazolium, inner salt](MTS) solution (Promega) was added into each well and the absorbance after 2 hour incubation at 37° C. (negative control) was read. And then, the cells were treated with TCF4 compound at various concentrations for 48 hours. 20 μl of MTS solution (Promega) was added into each well and incubated for 2 hour at 37° C. Cell viability was measured by reading the absorbance at 490 nm using a microplate reader (Molecular device) and cytotoxicity of a compound at each concentration was calculated.
as §1, with “a test” for “TCF4”

A further assay relates to HCT116 cells. Briefly: Growth inhibition assay (MTS). It counts as cell-based. To be noted: Homo sapiens, read-out: Growth Inhibition (GI50, uM) HCT116. As to the method: as §1
as §1, with “a test” for “TCF4”

Setting [1] is: Table 5, SW480 cells, 48 hours treatment, MTS.
[2] abbreviates: HCT-116, Table 5, HCT116 cells, 48 hours treatment, MTS.
The mark [3] stands for this setting: SW480, 48 h, Table 5, SW480 cells, 48 hours treatment, MTS.
Setting [4] is: HCT-116, 48 h, Table 5, HCT116 cells, 48 hours treatment, MTS.

Where two headings read alike, the source gives them in different places.

In the case of `C=CCN1CC(=O)N2[C@@H](Cc3ccc(OP(=O)(O)O)cc3)C(=O)N(Cc3cc(F)c(F)cc3N(C)C)C[C@@H]2N1C(=O)NCc1ccccc1` [Compound 133], the GI50 in the assay on SW480 cells (setting [1]) was found to be 2.3 ± 0.1 µM; in the assay on HCT116 cells (setting [2]), 2.1 ± 1.8 µM.
`C=CCN1CC(=O)N2[C@@H](Cc3ccc(O)cc3)C(=O)N(Cc3ccc(OC)cc3OC)C[C@@H]2N1C(=O)NCc1ccccc1` [Compound 183]: the GI50 with SW480 cells (setting [3]) stood at 1.6 ± 0.3 µM; with HCT116 cells (setting [4]), 1.5 ± 0.1 µM.
As to `CN1CC(=O)N2[C@@H](Cc3ccc(O)cc3)C(=O)N(Cc3ccccc3SC(F)(F)F)C[C@@H]2N1C(=O)NCc1ccccc1` [Compound 6], the results for the concentration for 50% growth inhibition (GI50) with SW480 cells (setting [3]) and in the assay on HCT116 cells (setting [4]) were 3.96 µM and 3.91 µM, respectively.
With `CN(C)CCn1ncc2cccc(CN3C[C@H]4N(C(=O)CN(C)N4C(=O)NCc4ccccc4)[C@@H](Cc4ccc(O)cc4)C3=O)c21` [Compound 62], the results for the GI50 in the assay with SW480 cells (setting [3]) and in the assay on HCT116 cells (setting [4]) were 35.3 ± 4.6 µM and 23.5 ± 2.7 µM, respectively.
The matching figures for `CN1CC(=O)N2[C@@H](Cc3ccc(O)cc3)C(=O)N(Cc3cccc4c3nnn4C)C[C@@H]2N1C(=O)NCc1ccccc1` [Compound 53]: 11.4 ± 0.9 µM and 4.7 ± 0.4 µM.
The corresponding values for `CN1CC(=O)N2[C@@H](Cc3ccc(O)cc3)C(=O)N(Cc3cccc4cnn(Cc5ccccc5[N+](=O)[O-])c34)C[C@@H]2N1C(=O)NCc1ccccc1` [Compound 51] are 3 ± 0.1 µM and 2.8 µM.
The corresponding values for `CC(C)N(C)c1cc(CN2C[C@H]3N(C(=O)CN(C)N3C(=O)NCc3ccccc3)[C@@H](Cc3ccc(O)cc3)C2=O)ccc1Cl` [Compound 33] are more than 50 µM and 28.6 ± 2 µM.
For the compound `[2H]c1cc(C[C@H]2C(=O)N(Cc3cccc4ccccc34)C[C@H]3N2C(=O)CN(C)N3C(=O)NCc2ccccc2)cc([2H])c1O` [Compound 136], the 50% growth inhibitory concentration (GI50) in the assay on SW480 cells (setting [3]) turned out to be 3.4 ± 0.4 µM; in the assay on HCT116 cells (setting [4]), 3 ± 0.9 µM.
The corresponding values for `C=CCN1CC(=O)N2[C@@H](Cc3ccc(O)cc3)C(=O)N(Cc3cccc4c3OCO4)C[C@@H]2N1C(=O)NCc1ccccc1` [Compound 172] are 0.8 ± 0.1 µM and 0.9 ± 0.1 µM.
Turning to `CN1CC(=O)N2[C@@H](Cc3ccc(O)cc3)C(=O)N(Cc3ccc4cccnc4c3)C[C@@H]2N1C(=O)NCc1ccccc1` [Compound 70], the values for the GI50 in the assay on SW480 cells (setting [3]) and with HCT116 cells (setting [4]) were 7.4 ± 0.6 µM and 7.2 ± 0.7 µM, respectively.
The corresponding values for `C=CCN1CC(=O)N2[C@@H](Cc3ccc(O)cc3)C(=O)N(Cc3cccc4sc(N5CCCCC5)nc34)C[C@@H]2N1C(=O)NCc1ccccc1` [Compound 188] are 1.6 ± 0.2 µM and 1.8 ± 0.2 µM.
The corresponding values for `C=CCN1CC(=O)N2[C@@H](CN([C@H](C)c3ccc(Cl)c4cccnc34)C(=O)[C@@H]2Cc2ccc(O)cc2)N1C(=O)NCc1ccccc1` [Compound 159] are 9.1 ± 0.5 µM and 8.2 ± 0.4 µM.
In the case of `CCCN1CC(=O)N2[C@@H](Cc3ccc(O)cc3)C(=O)N(Cc3cccc4cccnc34)C[C@@H]2N1C(=O)NCc1ccccc1` [Compound 94], the GI50 was 1.1 ± 0.3 µM in the assay on SW480 cells (setting [3]) and 0.7 ± 0.07 µM in the assay with HCT116 cells (setting [4]).
The corresponding values for `C[C@H](c1cccc(N(C)C)c1)N1C[C@H]2N(C(=O)CN(C)N2C(=O)NCc2ccccc2)[C@@H](Cc2ccc(O)cc2)C1=O` [Compound 38] are 8.5 µM and 6.9 µM.
As to `CCCN(C)c1cccc(CN2C[C@H]3N(C(=O)CN(C)N3C(=O)NCc3ccccc3)[C@@H](Cc3ccc(O)cc3)C2=O)c1` [Compound 34], the GI50 in the assay with SW480 cells (setting [3]) worked out at 13.8 ± 2.4 µM; with HCT116 cells (setting [4]), 6.4 ± 1.3 µM.
The matching figures for `C=CCN1CC(=O)N2[C@@H](Cc3ccc(O)cc3)C(=O)N(Cc3cccc4c3OCCN4C)C[C@@H]2N1C(=O)NCc1ccccc1` [Compound 128]: 0.9 ± 0.1 µM and 1 ± 0.03 µM.
On to `C[C@H](c1ccc(Cl)c2cccnc12)N1CC2N(C(=O)CN(C)N2C(=O)NCc2ccccc2)[C@@H](Cc2ccc(O)cc2)C1=O` (stereo partly drawn) [Compound 168], for which the GI50 in the assay on SW480 cells (setting [3]) is 6.2 ± 0.8 µM; with HCT116 cells (setting [4]), 6.5 ± 0.3 µM.
As for `C=CCN1CC(=O)N2[C@@H](Cc3ccc(OP(=O)(O)O)cc3)C(=O)N(Cc3ccccc3)C[C@@H]2N1C(=O)NCc1ccccc1` [Compound 144], the GI50 was determined as 0.5 ± 0.03 µM in the assay with SW480 cells (setting [1]) and 0.6 ± 0.1 µM in the assay with HCT116 cells (setting [2]).
For the compound `C#CCNC(=O)c1ccccc1Cn1ncc2c(CN3C[C@H]4N(C(=O)CN(C)N4C(=O)NCc4ccccc4)[C@@H](Cc4ccc(O)cc4)C3=O)cccc21` [Compound 80], the GI50 was 4 ± 0.6 µM in the assay with SW480 cells (setting [3]) and 3.9 ± 0.6 µM in the assay with HCT116 cells (setting [4]).
Consider `C=CCN1CC(=O)N2[C@@H](Cc3ccc(O)cc3)C(=O)N(Cc3cccc(OC)c3OC)C[C@@H]2N1C(=O)NCc1ccccc1` [Compound 184], for which the GI50 with SW480 cells (setting [3]) came to 0.7 ± 0.4 µM; with HCT116 cells (setting [4]), 0.7 ± 0.1 µM.
For the compound `CN1CC(=O)N2[C@@H](Cc3ccc(NC=O)cc3)C(=O)N(Cc3cccc4ccccc34)C[C@@H]2N1C(=O)NCc1ccccc1` [Compound 44], the GI50 in the assay on SW480 cells (setting [3]) is 3.8 ± 0.4 µM; in the assay on HCT116 cells (setting [4]), 4.2 ± 0.5 µM.
On to `CN(C1CC1)C1CC=CC=C1CN1C[C@H]2N(C(=O)CN(C)N2C(=O)NCc2ccccc2)[C@@H](Cc2ccc(O)cc2)C1=O` (stereo partly drawn) [Compound 31], for which the GI50 in the assay with SW480 cells (setting [3]) amounted to 8.1 ± 0.7 µM; in the assay on HCT116 cells (setting [4]), 5 ± 1 µM.
The matching figures for `COc1ccc(CN2CC3N(C(=O)CN(C)N3C(=O)NCc3ccccc3)[C@@H](Cc3ccc(O)cc3)C2=O)cc1` (stereo partly drawn) [Compound 20]: 5.02 µM and 2.75 µM.
The corresponding values for `CN1CC(=O)N2[C@@H](Cc3ccc(O)cc3)C(=O)N(Cc3ccc4cn[nH]c4c3)C[C@@H]2N1C(=O)NCc1ccccc1` [Compound 64] are 12 ± 0.7 µM and 19 ± 1.6 µM.
As to `C=CCN1CC(=O)N2[C@@H](Cc3ccc(OC(=O)NCCN(C)C)cc3)C(=O)N(Cc3ccc(F)cc3F)C[C@@H]2N1C(=O)NCc1ccccc1` [Compound 143], the GI50 came to 1.2 ± 0.1 µM in the assay with SW480 cells (SW480, 48 h) and 1.2 ± 0.1 µM with HCT116 cells (HCT-116, 48 h).
For `C=CCN1CC(=O)N2[C@@H](Cc3ccc(O)cc3)C(=O)N([C@@H](C)c3cccc4cccnc34)C[C@@H]2N1C(=O)NCc1ccccc1` [Compound 160], the concentration for 50% growth inhibition (GI50) stood at 13.7 ± 0.5 µM with SW480 cells (setting [3]) and 10.1 ± 1.3 µM with HCT116 cells (setting [4]).
The corresponding values for `C=CCN1CC(=O)N2[C@@H](Cc3ccc(O)cc3)C(=O)N(Cc3cccc4c3N(C)CCO4)C[C@@H]2N1C(=O)NCc1ccccc1` [Compound 117] are 0.6 ± 0.1 µM and 0.3 ± 0.02 µM.
The matching figures for `CN1CC(=O)N2[C@@H](Cc3ccc(O)cc3)C(=O)N(Cc3ccc4ncsc4c3)C[C@@H]2N1C(=O)NCc1ccccc1` [Compound 54]: 7.1 ± 0.5 µM and 4.9 ± 0.7 µM.
The matching figures for `CN(C)Cc1cccc(CN2C[C@H]3N(C(=O)CN(C)N3C(=O)NCc3ccccc3)[C@@H](Cc3ccc(O)cc3)C2=O)c1` [Compound 89]: 14.6 ± 1.4 µM and 7.5 ± 1 µM.
Regarding `CCCN1CC(=O)N2[C@@H](Cc3ccc(O)cc3)C(=O)N(Cc3ccc(Cl)c(N(C)C)c3)C[C@@H]2N1C(=O)NCc1ccccc1` [Compound 98], the concentration for 50% growth inhibition (GI50) with SW480 cells (setting [3]) came out at 7 ± 1.1 µM; with HCT116 cells (setting [4]), 4.4 ± 0.5 µM.
The corresponding values for `C=CCN1CC(=O)N2[C@@H](Cc3ccc(O)cc3)C(=O)N(Cc3ccc(Cl)c4cccnc34)C[C@@H]2N1C(=O)NCc1ccccc1` [Compound 109] are 1.3 ± 0.3 µM and 1.1 ± 0.1 µM.
In the case of `C=CCN1CC(=O)N2[C@@H](Cc3ccc(O)cc3)C(=O)N(Cc3ccc(Cl)c4scnc34)C[C@@H]2N1C(=O)NCc1ccccc1` [Compound 193], the GI50 stood at 0.8 ± 0.1 µM in the assay with SW480 cells (setting [3]) and 1.1 ± 0.1 µM with HCT116 cells (setting [4]).
The corresponding values for `C#CCn1cc2cccc(CN3C[C@H]4N(C(=O)CN(C)N4C(=O)NCc4ccccc4)[C@@H](Cc4ccc(O)cc4)C3=O)c2n1` [Compound 79] are 2.8 ± 0.2 µM and 5.2 ± 0.4 µM.
The matching figures for `C#CCN1CC(=O)N2[C@@H](Cc3ccc(O)cc3)C(=O)N(Cc3ccc4c(c3)OCCO4)C[C@@H]2N1C(=O)NCc1ccccc1` [Compound 107]: 1.6 ± 0.1 µM and 1.6 ± 0.1 µM.
On to `CN1CC(=O)N2[C@@H](Cc3ccc(O)cc3)C(=O)N(Cc3cccc4nnn(C)c34)C[C@@H]2N1C(=O)NCc1ccccc1` [Compound 52], for which the figures for the GI50 in the assay on SW480 cells (setting [3]) and in the assay on HCT116 cells (setting [4]) were 19.3 ± 2.1 µM and 9.7 ± 0.9 µM, respectively.
For the compound `CN1CC(=O)N2[C@@H](Cc3ccc(O)cc3)C(=O)N(Cc3ccccc3OC(F)(F)F)C[C@@H]2N1C(=O)NCc1ccccc1` [Compound 5], the GI50 in the assay with SW480 cells (setting [3]) came to 2.32 µM; in the assay on HCT116 cells (setting [4]) it was 2.06 µM.
The matching figures for `CCCN1CC(=O)N2[C@@H](Cc3ccc(O)cc3)C(=O)N(Cc3cccc(N4CCOCC4)c3)C[C@@H]2N1C(=O)NCc1ccccc1` [Compound 96]: 3.7 ± 0.4 µM and 3.4 ± 0.4 µM.
As to `CCCN1CC(=O)N2[C@@H](Cc3ccc(O)cc3)C(=O)N(Cc3ccc(Cl)c4cccnc34)C[C@@H]2N1C(=O)NCc1ccccc1` [Compound 120], the GI50 with SW480 cells (setting [3]) is 1.8 ± 0.2 µM; in the assay on HCT116 cells (setting [4]), 2.6 ± 0.1 µM.
The matching figures for `CCCN1CC(=O)N2[C@@H](Cc3ccc(O)cc3)C(=O)N(Cc3ccc(F)cc3F)C[C@@H]2N1C(=O)NCc1ccccc1` [Compound 127]: 4.9 ± 0.7 µM and 4.3 ± 0.7 µM.
